{"source": "patent US11007385B2", "about": "“Use of cellular extracts for skin rejuvenation” (Regenics AS, priority 2012, dated 2021)", "key": {"[1]": {"test_system": "human skin fibroblasts (hSF)", "experiment": "Collagen secretion from human skin fibroblasts (Biocolor Sircol collagen assay)", "assay_type": "cell-based", "conditions": "for Collagen Abs / Collagen/cell / Coll/cell % change: 8 days", "method": "LEX 42 and different concentrations of retinoic acid (0.01M and 0.1M) are applied to fibroblasts (HsF cells) in vitro and collagen production and secretion is measured. Briefly, on day 0, fibroblasts are seeded in 25 cm^2 cell culture flasks at a density of 2.8×10^5 cells per flask. On day 1, the culture media is replaced with fresh culture media supplemented with 0.5% LEX, 0.01M RA, or 0.1M RA. Control cells are grown with cell culture medium without LEX or RA. The cultures are continued for seven days, with a media (LEX/RA/control) change at day 4. On day 8, the cells are washed 3× with PBS before adding cell culture medium with low serum (1% FBS). On day 9, the culture medium (1.4 ml) is harvested and collagen content assessed using a collagen kit (Biocolor, on eht world wide web at biocolor.co.uk/index.php/assay-kits/sircol-1/). The absorbance is measured with Nanodrop 2000c (Thermo).\nLEX 51 was applied to fibroblasts (HsF cells) in vitro, and collagen production and secretion was assayed. The procedure was as described above, except with the modification of the assay on day 10, were 2 ml of the culture medium is harvested and collagen content assessed using a collagen kit (Biocolor, biocolor.co.uk/index.php/assay-kits/sircol-1/), with the adaptation of isolating collagen from 2 ml of culture medium compared to 1 ml as described in the kit manual. The absorbance is measured at 550 nm (the base line was set to 750 nm) with the Nanodrop 2000 (Thermo)\nCollagen assay from Biocolor was used to analyze the effect of LEX on hSF (fibroblast). This assay measures the produced and secreted collagen from hSF (fibroblasts). The measurements from un-stimulated control was compared to LEX stimulated hSF (fibroblasts) and noted as fold induction.\nThe level of collagen was measured after 8 days of treatment with 0% or 0.5% reconstituted freeze dried salmon egg extract I in complete growth medium supplemented with 10% FBS. Ascorbic acid (1 μg/ml) and 0.5% salmon egg extract I was used as positive controls."}, "[2]": {"test_system": "human skin fibroblasts (hSF)", "experiment": "Proliferation / cell number of human skin fibroblasts", "assay_type": "cell-based", "design": "increase in cell number: unit not given here", "conditions": "8 days; for Cell % change: vs control"}}, "note": "Values joined by “and” are separate entries in the source; they are usually repeats but may differ in a detail not shown here. Equal values may be shown once."}
{"smiles": "CC1=C(/C=C/C(C)=C/C=C/C(C)=C/C(=O)O)C(C)(C)CCC1", "note": "[RA, retinoic acid]", "values": [{"measurement": "Collagen Abs", "setting": "[1]; 0.01 μM RA", "value": 0.046}, {"measurement": "Collagen/cell", "setting": "[1]; 0.01 μM RA", "value": "4.7925E−08"}, {"measurement": "Coll/cell % change", "setting": "[1]; 0.01 μM RA, vs control", "value": "−16.5", "unit": "%"}, {"measurement": "Collagen Abs", "setting": "[1]; 0.1 μM RA", "value": 0.046}, {"measurement": "Collagen/cell", "setting": "[1]; 0.1 μM RA", "value": "5.077E−08"}, {"measurement": "Coll/cell % change", "setting": "[1]; 0.1 μM RA, vs control", "value": "−11.5", "unit": "%"}, {"measurement": "decrease of collagen per cell", "setting": "[1]; 0.1 μM RA, vs control", "value": 11.5, "unit": "%"}, {"measurement": "decrease of collagen produced per cell", "setting": "[1]; 0.01M RA, vs control", "value": 16.5, "unit": "%"}, {"measurement": "fold change of collagen produced per cell compared to control cultures", "setting": "[1]; RA cultures (0.01M and 0.1M), eight days", "value": "0.84 and 0.89"}, {"measurement": "final # of cells", "setting": "[2]; 0.01 μM RA", "value": 959833}, {"measurement": "Cell % change", "setting": "[2]; 0.01 μM RA", "value": 10.1, "unit": "%"}, {"measurement": "final # of cells", "setting": "[2]; 0.1 μM RA", "value": 906000}, {"measurement": "Cell % change", "setting": "[2]; 0.1 μM RA", "value": 3.9, "unit": "%"}, {"measurement": "increase in cell number", "setting": "[2]; 0.01M RA", "value": 3.99}, {"measurement": "increase in cell number compared to control", "setting": "[2]; 0.1M RA", "value": 10, "unit": "%"}]}
